Test results taken from ChEMBL document CHEMBL5604063, “ASAP - DENV-2 NS2B-NS3 protease fluorescence dose response” (2024).
Several values for one entry are separate records, joined by “and”; a condition that tells them apart may be missing. Equal entries are not always repeated.

Assays:
[1] = molecular target: T1, Genome polyprotein (dengue virus type 2, UniProt P29990); assay type: functional, Thailand/16681/1984
[2] = molecular target: T1, Genome polyprotein; assay type: functional, Thailand/16681/1984; remark: listed apart in the source

T1 sequence (P29990 1346-1475 limits assumed): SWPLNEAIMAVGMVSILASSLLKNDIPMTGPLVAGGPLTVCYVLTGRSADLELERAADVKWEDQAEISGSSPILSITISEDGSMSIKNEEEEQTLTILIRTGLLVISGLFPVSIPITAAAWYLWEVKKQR
T1 sequence (P29990 1476-2093 limits assumed): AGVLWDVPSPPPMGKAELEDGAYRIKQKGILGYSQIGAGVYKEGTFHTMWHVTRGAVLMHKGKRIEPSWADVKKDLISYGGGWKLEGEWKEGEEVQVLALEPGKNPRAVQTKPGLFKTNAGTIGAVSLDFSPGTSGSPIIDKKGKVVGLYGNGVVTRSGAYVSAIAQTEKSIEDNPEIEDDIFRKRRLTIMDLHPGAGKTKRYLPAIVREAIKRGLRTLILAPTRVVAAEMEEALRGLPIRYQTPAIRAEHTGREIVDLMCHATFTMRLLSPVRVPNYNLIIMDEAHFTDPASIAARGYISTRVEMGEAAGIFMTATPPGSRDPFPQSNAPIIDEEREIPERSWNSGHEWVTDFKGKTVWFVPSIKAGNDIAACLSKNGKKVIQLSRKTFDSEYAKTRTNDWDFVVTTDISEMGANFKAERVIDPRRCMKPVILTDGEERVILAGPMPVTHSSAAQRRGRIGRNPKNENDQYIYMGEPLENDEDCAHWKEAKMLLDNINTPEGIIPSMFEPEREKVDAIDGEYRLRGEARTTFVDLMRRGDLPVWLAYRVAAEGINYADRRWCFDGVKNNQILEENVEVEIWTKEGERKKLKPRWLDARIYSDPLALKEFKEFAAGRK

Structure (SMILES) | IC50 [1] | IC50 [2]
CCOC(=O)[C@H](Nc1ccc2c(c1)CNC2)c1cc(Cl)cc(C2CC2)c1 | 89.8 µM | 76.7 µM
COC1CCN(C(=O)c2ccnc(NC(=O)c3cc(C4CC4)n(C)c3C)c2)CC1 | > 100 µM | > 99.5 µM
O=C(NCC(F)F)[C@H](Nc1ccc2c(c1)CNC2)c1cc(Cl)ccc1Sc1ccccc1 | > 100 µM | > 99.5 µM
CSc1cc2c(cc1NC(=O)c1cc(F)cc3[nH]ncc13)CNC2 | > 100 µM | 71.1 µM
Cc1c(C(=O)Nc2cc(C(=O)N3CCC[C@H]3C(N)=O)ccn2)cc(C2CC2)n1C | > 100 µM | > 99.5 µM
CC(C)(C)OC(=O)N1Cc2cc(NC(=O)c3cc(Cl)cc4c3cnn4[C@@H]3CCCCO3)ccc2[C@H]1CO | > 100 µM | > 99.5 µM
O=C(Nc1ccc2c(c1)CNC2)c1ccc2[nH]cc(C3CCNCC3)c2c1 | 75.9 µM | 19.5 µM and 31.3 µM
O=C1Cc2c(cccc2C(=O)Nc2ccc3c(c2)CCNCC3)N1 | 33.8 µM | 21 µM
C[C@]1(OCCCO)C(=O)Nc2cc(F)cc(C(=O)Nc3ccc4c(c3)CNC4)c21 | > 100 µM | > 99.5 µM
N#Cc1ccc(-c2nc3c(C(=O)Nc4ccc5c(c4)CNC5)cc(F)cc3[nH]2)cc1 | 11.3 µM and 10.2 µM | 2.9 µM and 2.52 µM
O=C(Nc1cc(-c2cccnc2)ccn1)c1cc(C2CC2)[nH]c(=O)c1 | > 100 µM | > 99.5 µM
O=C(Nc1cnc2c(c1)CNC2)c1cc(F)cc2[nH]ncc12 | 46.6 µM and 49.7 µM | 36.5 µM
CC(C)CO[C@]1(C)C(=O)Nc2cc(F)cc(C(=O)Nc3ccc4c(c3)CNC4)c21 | > 100 µM | > 99.5 µM
Cc1cc(C(=O)Nc2ccc3c(c2)CNC3)cc2nn[nH]c12 | > 100 µM | > 99.5 µM
CC(C)c1nnc(-c2nc3c(C(=O)Nc4ccc5c(c4)CNC5)cc(F)cc3[nH]2)s1 | 64.1 µM and 67.1 µM | 35.2 µM and 34.8 µM
N[C@H]1COC[C@H]1n1cc(C(=O)Nc2cc(-c3cccnc3)ccn2)cn1 | > 100 µM | > 99.5 µM
COc1ccc(-c2nc3c(C(=O)Nc4ccc5c(c4)CNC5)cc(F)cc3[nH]2)nn1 | 32 µM and 19 µM and 38 µM and 36.5 µM | 11.4 µM and 19.1 µM and 8.41 µM
Cc1c(C(=O)Nc2cc(C(=O)N[C@H]3CCOC3)ccn2)cc(C2CC2)n1C | > 100 µM | > 99.5 µM
Cc1c(C(=O)Nc2cc(C(=O)N3C[C@@H]4[C@H](O)[C@@H]4C3)ccn2)cc(C2CC2)n1C | > 100 µM | > 99.5 µM
Cc1c(C(=O)Nc2cc(C(=O)N3CC[C@H](C(N)=O)C3)ccn2)cc(C2CC2)n1C | > 100 µM | > 99.5 µM

Structure (SMILES) | IC50 [1] | IC50 [2]
O=C1Cc2c(cccc2C(=O)NC2CCC3(CC2)COC3)N1 | > 100 µM | > 99.5 µM
Cc1c(C(=O)Nc2cc(C(=O)N[C@H]3CCNC3=O)ccn2)cc(C2CC2)n1C | > 100 µM | > 99.5 µM
COc1cc(Cl)cc([C@H](Nc2ccc3c(c2)CNC3)C(=O)NCC(F)F)c1 | > 100 µM | > 99.5 µM
Cc1cc(CN)cc(NC(=O)c2cccc3c2CC(=O)N3)c1 | > 100 µM | 75.9 µM
Cc1c(C(=O)Nc2cc(C(=O)N(C)C3COC3)ccn2)cc(C2CC2)n1C | > 100 µM | > 99.5 µM
CC(C)n1cnc2cc(C(=O)Nc3ccc4c(c3)CNC4)ccc21 | > 100 µM | > 99.5 µM
O=C1Cc2c(cccc2C(=O)Nc2ccc(Cl)c(CO)n2)N1 | > 100 µM | > 99.5 µM
O=C(Nc1ccc2c(c1)CNC2)c1cc(F)cc(-c2cnc3n2CCC3)c1 | > 100 µM | > 99.5 µM
Cc1c(C(=O)Nc2cc(C(=O)N3CC[C@H](O)C3)ccn2)cc(C2CC2)n1C | > 100 µM | > 99.5 µM
NCc1ccc(-c2csc3cc(C(=O)Nc4ccc5c(c4)CNC5)ccc23)cc1 | > 100 µM | 28.4 µM and 18.3 µM
CS(=O)(=O)c1cc2c(cc1NC(=O)c1cc(F)cc3[nH]ncc13)CNC2 | > 100 µM | > 99.5 µM
CC(C)Oc1ccc(Cl)cc1[C@H](Nc1ccc2c(c1)CNC2)C(=O)NCC(F)F | > 100 µM | > 99.5 µM
Cc1cc([C@H](Nc2ccc3c(c2)CNC3)C(=O)NCC(F)F)cc(C(F)(F)F)c1 | > 100 µM | > 99.5 µM
O=C(Nc1ccc2c(c1)CN[C@H]2[C@H](O)CO)c1cc(F)cc2[nH]ncc12 | > 100 µM | > 99.5 µM
NCCc1cc(C(=O)Nc2cc(-c3cccnc3)ccn2)no1 | > 100 µM | > 99.5 µM
O=C(Nc1ccc2c(c1)CNC2)c1cccc2c(C3CNC3)n[nH]c12 | 22.7 µM and 26.4 µM | 19 µM and 17.2 µM
Cc1c(C(=O)Nc2cc(C(=O)N(C)[C@H]3C[C@H](O)C3)ccn2)cc(C2CC2)n1C | > 100 µM | > 99.5 µM
Cc1c(C(=O)Nc2cc(C(=O)N3Cc4cn[nH]c4C3)ccn2)cc(C2CC2)n1C | > 100 µM | > 99.5 µM
O=C1Cc2c(cccc2C(=O)Nc2ccc3c(c2)CNCCO3)N1 | > 100 µM | > 99.5 µM
CO[C@H]1CCCN(C(=O)c2ccnc(NC(=O)c3cc(C4CC4)n(C)c3C)c2)C1 | > 100 µM | > 99.5 µM

Structure (SMILES) | IC50 [1] | IC50 [2]
Cn1ccc(-c2cc(F)cc(C(=O)Nc3ccc4c(c3)CNC4)c2)cc1=O | > 100 µM | > 99.5 µM
CC(=O)N(c1ccc2c(c1)CNC2)[C@H](C(=O)NCC(F)F)c1cc(Cl)cc(C2CC2)c1 | > 100 µM | > 99.5 µM
COCCO[C@]1(C)C(=O)Nc2cc(F)cc(C(=O)Nc3ccc4c(c3)CNC4)c21 | > 100 µM | > 99.5 µM
O=C(Nc1ccc2c(c1)CNC2)c1cc(F)cc2[nH]c(-c3ccc(F)cc3O)nc12 | > 100 µM | 62.1 µM
N#Cc1c[nH]c2c(C(=O)Nc3ccc4c(c3)CNC4)cccc12 | > 100 µM | > 99.5 µM
Cn1nccc1-c1cc(NC(=O)c2cc(F)cc3[nH]ncc23)cc2c1CNC2 | 81.4 µM | 54.1 µM
CN1CCc2c([nH]c3ccc(C(=O)Nc4ccc5c(c4)CNC5)cc23)C1=O | > 100 µM | > 99.5 µM
Cc1[nH]c2c(C(=O)Nc3ccc4c(c3)CNC4)cccc2c1C | > 100 µM | > 99.5 µM
C=CC[C@H]1NCc2cc(NCc3cc(Cl)cc4[nH]ncc34)ccc21 | > 100 µM | > 99.5 µM
Cc1c(C(=O)Nc2cc(C(=O)N3CCOC[C@H](O)C3)ccn2)cc(C2CC2)n1C | > 100 µM | > 99.5 µM
Cc1c(C(=O)Nc2cc(C(=O)N3CCOCC3)ccn2)cc(C2CC2)n1C | > 100 µM | > 99.5 µM
Cc1c(C(=O)Nc2cc(C(=O)N3CCCNC(=O)C3)ccn2)cc(C2CC2)n1C | > 100 µM | > 99.5 µM
O=C(Nc1ccc2c(c1)CN[C@H]2CO)c1cc(F)cc2[nH]ncc12 | > 100 µM | > 99.5 µM
Cc1c(C(=O)Nc2cc(Br)c3c(c2)COC3)cc(C2CC2)n1C | > 100 µM | > 99.5 µM
O=C1CCc2cc(C(=O)Nc3ccc4c(c3)CNC4)cc(F)c2N1 | > 100 µM | > 99.5 µM
CC(C)O[C@]1(C)C(=O)Nc2cc(F)cc(C(=O)Nc3ccc4c(c3)CNC4)c21 | > 100 µM | > 99.5 µM
Cc1c(C(=O)Nc2cc(C(=O)N3CC(C(N)=O)C3)ccn2)cc(C2CC2)n1C | > 100 µM | > 99.5 µM
NCc1csc2cc(C(=O)Nc3cc([C@H]4CCOC4)ccn3)ccc12 | > 100 µM | > 99.5 µM
N[C@H]1Cc2ccc(NC(=O)c3cccc4c3CC(=O)N4)cc2C1 | 48.5 µM and 56.1 µM | 20.5 µM
